Measured values published in patent US8216782B2, “PTTG1 as a biomarker for cancer treatment” (Cedars-Sinai Medical Center, priority 2008, dated 2012).
“Also recorded” adds a separate entry of the source. Values belong to the molecule of their own block, whether it stands above or below them.

What was measured:
HCT116 WT cells [1] = assay: β-galactosidase staining (senescence); assay type: cell-based; details: 0.313 uM, 48 hrs
Description: (§1) Cells were fixed and stained with β-galactosidase staining kit (Sigma).

HCT116 PTTG1−/− cells [2] = assay: β-galactosidase staining (senescence); assay type: cell-based; details: 0.313 uM, 48 hrs
Description: as §1

p21 = p21 expression after treatment; assay type: cell-based; details: WT and PTTG1−/− cells
Description: FIG. 10 depicts P21 level is higher in PTTG1^−/− cells than WT. P21 induces senescence.

PTTG1−/− HCT116 tumors = assay: Subcutaneous tumor implant in nude mice; details: 50 mg/kg, 17 days
Method: Tumor volume was measured twice a week. Mice were sacrificed at day 18 and tumors were collected and weighted.

WT HCT116 tumors = assay: Subcutaneous tumor implant in nude mice; assay type: in vivo; details: 50 mg/kg, 17 days
Method: Tumor volume was measured twice a week.

HCT116 cells = assay: Apoptosis by Tunel assay and activated caspase 3 levels; assay type: cell-based
Aurora Kinase A [3] = assay: Western blot of siRNA knock down; assay type: cell-based; details: WT and PTTG1−/− cells
Method: Protein extracts were resolved by Nupage 4-12% Bis-Tris Gel (obtained from Invitrogen). Samples were electro-blotted onto PVDF membrane (obtained from Invitrogen), and membranes blocked and incubated with primary antibody. Donkey anti-rabbit- or anti-mouse (obtained from GE Healthcare; NJ) antibodies were conjugated to horseradish […] to reveal immunocomplexes by enhanced chemiluminescence (obtained from Thermo Scientific Pierce Protein Research Products).
Aurora Kinase A siRNA (AM51331, Sense: Described herein as SEQ. ID. NO.: 5; Antisense: Described herein as SEQ. ID. NO.: 6) and PTTG1 siRNA (16706, Sense: Described herein as SEQ. ID. NO.: 7; Antisense: Described herein as SEQ. ID. NO.: 8) were purchased from Ambion, Inc. (TX). Transfections were carried out with lipofectamine 2000 according to protocol.

HCT116 PTTG1−/− cells [4] = assay: WST-1 cell proliferation assay; assay type: cell-based; details: for sensitivity of PTTG1−/− cell growth versus WT (WST-1): PTTG1−/− vs WT HCT116 cells
Method: (§2) FIG. 4 depicts that PTTG1 regulates cell response to Aurora Kinase inhibition, in accordance with an embodiment of the present invention. (A) PTTG1^−/− cell proliferation was attenuated in response to Aurora Kinase A siRNA (mean±S.D., n=3. P<0.05 vs WT). Cells were seeded into 96-well plates, cultured overnight, and then transfected with siRNAs (100 nM). After 72 hours, premixed WST-1 cell proliferation reagent (10 ul) was added to each well. Cells were incubated for a further four hours and shaken thoroughly for one minute before measurement. […] Cells were seeded into 96-well plates, cultured overnight, and then treated with drug as indicated for 48 hours. Viable cells were measured using Premixed WST-1 cell proliferation reagent. (C) Anchorage-dependent colony formation assay was performed as described herein. […] (mean±S.D., n=3. P<0.05 vs WT) (D) Western blot showing that over-expressed PTTG1 rescued PTTG1^−/− sensitivity to Aurora Kinase inhibitor III (12.5 uM) (mean±S.D., n=3. P>0.05 vs WT); PTTG1 knock-down enhanced WT cell sensitivity to Aurora Kinase inhibitor III (12.5 uM) (mean±S.D., n=3. P>0.05 vs PTTG1^−/−). PTTG1^−/−=PTTG1-null or KO cells.
(§3) Cell proliferation was evaluated using WST-1 cell proliferation reagent (obtained from Clontech Laboratories, Inc.; Mountain View, Calif.). Briefly, 90 μl cells were seeded into 96-well plates and cultured overnight, treated with drugs for 48 hours, and 10 μl premixed WST-1 cell proliferation reagent added. Cells were incubated for a further four hours, shaken and absorbance measured at 450 nm using a Victor 3 multiwell plate reader (obtained from PerkinElmer, Inc.; Waltham, Mass.). Cell viability rate was calculated for each well as A450 treated cells/A450 control cells×100% (A450: OD value at 450 nm).

Aurora Kinase A [5] = details: Gadea and Ruderman, 2005; cited from earlier work
HCT116 WT cells [6] = assay: WST-1 cell proliferation assay; assay type: cell-based; details: Homo sapiens, HCT-116, 48 h, read-out: cells remaining viable
Method: as §2, §3

PTTG1 = assay: Western blot of PTTG1 phosphorylation after DNA damage; assay type: cell-based; details: 24 hours, 5 μM doxorubicin
Description: (§4) FIG. 6 depicts PTTG1 and DNA damage pathway, in accordance with an embodiment of the present invention. […] (B) Aurora Kinase A activity was less inhibited after DNA damage treatment in PTTG1^−/− cells. Lane C1, positive control with Aurora Kinase A; lane C2, negative control without Aurora Kinase A; lane WT, Aurora Kinase A co-immunoprecipitated from HCT116 WT cells after doxorubicin treatment; Lane −/−, Aurora Kinase A immunoprecipitated from HCT116 PTTG1^−/− cells after doxorubicin treatment. Aurora Kinase A activity is higher in PTTG1^−/− than WT HCT116 cells. (C) C, PTTG1 WT plasmid; M3, PTTG1 S165A mutation; M9, PTTG1 S181A mutation. Plasmids were transfected into HCT116 PTTG1^−/− cells and treated with proteosome inhibitor LLnL to enrich phosphorylated PTTG1. Arrow depicts the major band. […] (D) WT, PTTG1 WT plasmid; M9, PTTG1 S181A mutation were transfected into HCT116 PTTG1^−/− and co-immunoprecipitation performed. […] (E) Proposed signaling pathway for PTTG1 action in G2 DNA damage checkpoint.

Aurora Kinase A [7] = assay: Kinase activity of Aurora Kinase A immunoprecipitated from treated HCT116 cells; assay type: cell-based; details: PTTG1−/− vs WT HCT116 cells
Description: as §4
Aurora Kinase A activity is inhibited by DNA damage (Krystyniak et al., 2006). The inventors therefore tested Aurora Kinase A activity in HCT116 WT and PTTG1^−/− cells after treatment with doxorubicin. […] Phosphorylated PTTG1 may therefore act with Aurora Kinase A and play a role in the DNA damage-induced G2 checkpoint. […]

HCT116 WT cells [8] = assay: Anchorage-dependent colony formation assay; assay type: cell-based; details: 0.16 μM doxorubicin
Method: (§5) Briefly, 20,000 cells were plated in a six-well culture dish, allowed to attach overnight and treated with depicted drug concentrations. Cells were cultured in standard culture medium containing indicated treatments for twelve days and medium re-freshened every three days. Colonies were stained with 0.5% crystal violet in methanol/acetic acid (3:1) and those composed of >50 cells were counted.

HCT116 PTTG1−/− cells [9] = assay: Anchorage-dependent colony formation assay; assay type: cell-based; details: PTTG1−/− colonies, 0.16 μM doxorubicin
Method: as §5

Aurora Kinase A [10] = molecular target: T1, Aurora Kinase A (Homo sapiens, UniProt O14965); assay: In vitro kinase activity assay (histone H3 Ser10 phosphorylation); assay type: biochemical; parameters: purchased Cell Signaling; details: PTTG1 0.5, 1, 2 μg
T1 sequence (O14965 1-403): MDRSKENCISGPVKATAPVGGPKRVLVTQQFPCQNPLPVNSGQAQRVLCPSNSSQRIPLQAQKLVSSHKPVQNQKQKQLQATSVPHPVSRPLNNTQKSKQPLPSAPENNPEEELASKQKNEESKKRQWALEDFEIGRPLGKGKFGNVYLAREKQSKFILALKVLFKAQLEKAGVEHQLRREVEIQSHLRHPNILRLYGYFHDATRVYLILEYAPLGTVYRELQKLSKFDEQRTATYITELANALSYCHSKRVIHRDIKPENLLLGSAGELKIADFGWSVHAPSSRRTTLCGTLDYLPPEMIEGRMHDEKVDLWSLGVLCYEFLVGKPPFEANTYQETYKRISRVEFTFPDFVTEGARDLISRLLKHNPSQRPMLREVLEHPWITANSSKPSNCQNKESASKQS
Description: FIG. 3 depicts that PTTG1 attenuates Aurora Kinase A function, in accordance with an embodiment of the present invention. (A) Over-expressed PTTG1 caused abnormal spindle formation as evidenced by unevenly distributed PTTG1-GFP and Aurora Kinase A (white arrows). (B) Western blot showing that over-expressed PTTG1 suppressed Aurora Kinase A T288 auto-phosphorylation and histone H3 Ser10 phosphorylation in HCT116 cells compared to controls. (C) Over-expressed PTTG1 repressed histone H3 Seri 0 phosphorylation as shown by immunofluorescence (white arrows). Scale bar=5 μm. (D) Degradation of mitotic proteins. HCT116 cells were synchronized with 400 ng/ml nocodazole for twelve hours and mitotic cells collected by shake-off, washed and cultured in fresh medium at 37° C. to allow progression of G2/M, and cells harvested at the indicated time points. […] (E) In vitro kinase assay. Aurora Kinase A, histone H3 and increasing PTTG1 or GST-His levels (0.5, 1, 2 μg) were brought to a 30 μl volume reaction system as described herein. After incubations at 37° C. for 20 minutes, reactions were halted and analyzed by Western blotting using histone H3 ser10 antibody. […]
Assays were performed using a modified Aurora kinase A assay kit obtained from Cell Signaling. […] Proteins were separated by standard SDS-PAGE and analyzed by Western blotting.

ribosomal protein S10 = molecular target: T2, ribosomal protein S10 (Homo sapiens, UniProt P46783); assay: Protein microarray screening (Protoarray); assay type: binding; details: biotinylated PTTG1 probe
T2 construct: purchased Invitrogen Protoarray nc-v3
Method: (§6) FIG. 1 depicts that PTTG1 interacts with Aurora Kinase A, in accordance with an embodiment of the present invention. (A) PTTG1 was biotin-labeled and incubated with the protein microarray. Attached biotinylated PTTG1 was probed with Streptavidin-Alexa Fluor 647 conjugate. […] (B) Aurora Kinase A antibody was used to co-immunoprecipitate PTTG1, and PTTG1 antibody used to co-immunoprecipitate Aurora Kinase A respectively.
(§7) The human Protoarray nc3.0 study was performed as described by the manufacturer (obtained from Invitrogen Corporation; Carlsbad, Calif.). PTTG1 protein was biotinylated using biotin-XX sulfosuccinimidyl ester, purified by gel filtration, and assessed by Western blot. Appropriate protein aliquots were used to probe a protein microarray (Protoarray nc-v3; obtained from Invitrogen) and attached biotinylate PTTG1 was probed with Streptavidin-Alexa Fluor 647 conjugate. Arrays were scanned by GenePix 4000B (obtained from Molecular Devices Corporation; Sunnyvale, Calif.), and images analyzed using ProtoArray Prospector (Invitrogen).

Aurora Kinase A [11] = molecular target: T1, Aurora Kinase A; assay: Protein microarray screening (Protoarray); assay type: binding; parameters: purchased Invitrogen Protoarray nc-v3; details: biotinylated PTTG1 probe
Method: as §6, §7

Molecule: O=C(CCCCCCC(=O)Nc1ccccc1)NO [SAHA, suberoylanilide hydroxamic acid]
- senescent cells (β-galactosidase staining) (HCT116 WT cells [1]): 7%
- senescent cells (β-galactosidase staining) (HCT116 PTTG1−/− cells [2]): 43%
- p21 expression (p21): enhanced p21 expression
- tumor growth (PTTG1−/− HCT116 tumors): significantly inhibited
- tumor growth (WT HCT116 tumors): did not show any difference between control and treated group; also recorded: had no effect
- apoptosis (HCT116 cells): did not cause apoptosis

Molecule: Aurora Kinase A siRNA: siRNA AM51331, SEQ. ID. NO.: 5 and 6, purchased from Ambion (chain 1 GGCAACCAGUGUACCUCAU; chain 2 AUGAGGUACACUGGUUGCC; chemistry not given here; listed as Homo sapiens)
- Aurora Kinase A expression (Aurora Kinase A [3]): efficiently knocked down Aurora Kinase A expression
- effect on the WT versus PTTG1−/− difference in response to doxorubicin (HCT116 PTTG1−/− cells [4]; 3 μM inhibitor pre-incubation or siRNA, 0.63 μM doxorubicin): abolished the differences
- sensitivity of PTTG1−/− cell growth versus WT (WST-1) (HCT116 PTTG1−/− cells [4]): attenuated

Molecule: COc1cc2c(Nc3ccc(NC(=O)c4ccccc4)cc3)ncnc2cc1OCCCN1CCOCC1 [ZM 447439]
- effect on chromosome condensation and spindle (Aurora Kinase A [5]): retards progression of chromosome condensation, leading to a disorganized spindle

Molecule: COc1cccc2c1C(=O)c1c(O)c3c(c(O)c1C2=O)C[C@@](O)(C(=O)CO)C[C@@H]3O[C@H]1C[C@H](N)[C@H](O)[C@H](C)O1 [doxorubicin]
- viability at 1.25 µM (HCT116 WT cells [6]): 55%
- viability at 1.25 µM (HCT116 PTTG1−/− cells [4]; Homo sapiens, HCT-116, 48 h, read-out: cells remaining viable): 27%
- sensitivity of PTTG1−/− cell growth versus WT (WST-1) (HCT116 PTTG1−/− cells [4]): more sensitive
- phosphorylated PTTG1 (PTTG1): Increased phosphorylated PTTG1
- Aurora Kinase A activity after doxorubicin treatment (Aurora Kinase A [7]): less suppressed in PTTG1^−/− than WT cells
- colonies survived (HCT116 WT cells [8]): 74%
- colonies survived (HCT116 PTTG1−/− cells [9]): 36%

- Aurora Kinase A phosphorylation of histone H3 (Aurora Kinase A [10]): dose-dependently inhibits
- Z-score of interaction (ribosomal protein S10): 3.34
- Z-score of interaction (Aurora Kinase A [11]): 4.90
B1: PTTG1: pituitary tumor transforming gene protein (securin); His-PTTG1 expressed in insect cells, biotinylated for the array (protein, listed as Homo sapiens)
chain: MATLIYVDKENGEPGTRVVAKDGLKLGSGPSIKALDGRSQVSTPRFGKTFDAPPALPKATRKALGTVNRATEKSVKTKGPLKQKQPSFSAKKMTEKTVKAKSSVPASDDAYPEIEKFFPFNPLDFESFDLPEEHQIAHLPLSGVPLMILDEERELEKLFQLGPPSPVKMPSPPWESNLLQSPSSILSTLDVELPPVCCDIDI
modifications: His tag, biotinylated
notes: pituitary tumor transforming gene protein (securin); His-PTTG1 expressed in insect cells, biotinylated for the array
